Laboratory results: patent publication US3956274A, “New compound 6'-deoxy-'-substituted or unsubstituted amino-lividomycins and the production thereof” (Zaidan Hojin Biseibutsu Kagaku Kenkyu Kai, priority 1973, dated 1976)
≈ marks a conversion by molar mass, not a printed value. Where two headings read alike, the source gives them in different places.

Legend:
[1] = test system: strains producing the phosphotransferase; conditions: in words; cited from earlier work
[2] = test system: Bacillus subtilis NRRL B-558; experiment: MIC, standard serial dilution method; type: cell-based; conditions: Bacillus subtilis, NRRLB558; B. subtilis NRRL B-558; nutrient agar, 37°C, 18 hours; read-out: Minimal inhibitory concentration
Method: (§1) The minimum inhibitory concentrations (mcg/ml) of 6'-amino-6'-deoxylividomycin B, 6'-deoxy-6'-methylaminolividomycin B and 6'-deoxy-6'-(2-hydroxyethylamino) lividomycin B against various microorganisms were determined according to a standard serial dilution method using nutrient agar incubation medium at 37°C, the estimation being effected after 18 hours incubation except for Mycobacterium smegmalis ATCC 607, in which the estimation being effected after 48 hours incubation. The minimum inhibitory concentrations (mcg/ml) of neomycin and lividomycin B were also determined in the same manner they also for comparison.

[3] = test system: Escherichia coli K-12 J 5 R 11-2; experiment: MIC, standard serial dilution method; type: cell-based; conditions: Escherichia coli, K12J5R112; E. coli K-12 J 5 R 11-2; nutrient agar, 37°C, 18 hours; read-out: Minimal inhibitory concentration
Method: as §1

[4] = test system: Escherichia coli K-12 LA 290 R 56; experiment: MIC, standard serial dilution method; type: cell-based; conditions: Escherichia coli, 18 h, read-out: Minimal inhibitory concentration
Method: as §1

[5] = test system: Escherichia coli K-12 LA 290 R 64; experiment: MIC, standard serial dilution method; type: cell-based; conditions: Escherichia coli; E. coli K-12 LA 290 R 64; nutrient agar, 37°C, 18 hours; read-out: Minimal inhibitory concentration
Method: as §1

[6] = test system: Escherichia coli K-12 ML 1410 R 81; experiment: MIC, standard serial dilution method; type: cell-based; conditions: Escherichia coli, 18 h, read-out: Minimal inhibitory concentration
Method: as §1

[7] = test system: Escherichia coli K-12 ML 1410; experiment: MIC, standard serial dilution method; type: cell-based; conditions: Escherichia coli, read-out: Minimal inhibitory concentration
Method: as §1

[8] = test system: Escherichia coli K-12 ML 1630; experiment: MIC, standard serial dilution method; type: cell-based; conditions: Escherichia coli, K12ML1630; E. coli K-12 ML 1630; nutrient agar, 37°C, 18 hours; read-out: Minimal inhibitory concentration
Method: as §1

[9] = test system: Escherichia coli K-12 R-5; experiment: MIC, standard serial dilution method; type: cell-based; conditions: Escherichia coli, K12R5; E. coli K-12 R-5; nutrient agar, 37°C, 18 hours; read-out: Minimal inhibitory concentration
Method: as §1

[10] = test system: Escherichia coli K-12 W 677; experiment: MIC, standard serial dilution method; type: cell-based; conditions: Escherichia coli, K12W677, 18 h, read-out: Minimal inhibitory concentration
Method: as §1

[11] = test system: Escherichia coli K-12; experiment: MIC, standard serial dilution method; type: cell-based; conditions: Escherichia coli, read-out: Minimal inhibitory concentration
Method: as §1

[12] = test system: Escherichia coli NIHJ; experiment: MIC, standard serial dilution method; type: cell-based; conditions: Escherichia coli, read-out: Minimal inhibitory concentration
Method: as §1

[13] = test system: Klebsiella pneumoniae PCI 602; experiment: MIC, standard serial dilution method; type: cell-based; conditions: Klebsiella pneumoniae, PCI602; K. pneumoniae PCI 602; nutrient agar, 37°C, 18 hours; read-out: Minimal inhibitory concentration
Method: as §1

[14] = test system: Klebsiella pneumoniae type 22 No. 3038; experiment: MIC, standard serial dilution method; type: cell-based; conditions: Klebsiella pneumoniae, read-out: Minimal inhibitory concentration
Method: as §1

[15] = test system: Mycobacterium smegmatis ATCC 607; experiment: MIC, standard serial dilution method; type: cell-based; conditions: Mycolicibacterium smegmatis, ATCC607, nutrient agar, 37°C, 48 hours, read-out: Minimal inhibitory concentration
Method: as §1

[16] = test system: Proteus rettgeri GN 311; experiment: MIC, standard serial dilution method; type: cell-based; conditions: Providencia rettgeri, GN311, nutrient agar, 37°C, 18 hours, read-out: Minimal inhibitory concentration
Method: as §1

[17] = test system: Proteus rettgeri GN 466; experiment: MIC, standard serial dilution method; type: cell-based; conditions: Providencia rettgeri, GN466, 18 h, read-out: Minimal inhibitory concentration
Method: as §1

[18] = test system: Pseudomonas aeruginosa 99; experiment: MIC, standard serial dilution method; type: cell-based; conditions: Pseudomonas aeruginosa; P. aeruginosa 99; nutrient agar, 37°C, 18 hours; read-out: Minimal inhibitory concentration
Method: as §1

[19] = test system: Pseudomonas aeruginosa A 3; experiment: MIC, standard serial dilution method; type: cell-based; conditions: Pseudomonas aeruginosa, A3, 18 h, read-out: Minimal inhibitory concentration
Method: as §1

[20] = test system: Pseudomonas aeruginosa No.12; experiment: MIC, standard serial dilution method; type: cell-based; conditions: Pseudomonas aeruginosa; P. aeruginosa No.12; nutrient agar, 37°C, 18 hours; read-out: Minimal inhibitory concentration
Method: as §1

[21] = test system: Pseudomonas aeruginosa TI-13-1; experiment: MIC, standard serial dilution method; type: cell-based; conditions: Pseudomonas aeruginosa, TI131; P. aeruginosa TI-13-1; nutrient agar, 37°C, 18 hours; read-out: Minimal inhibitory concentration
Method: as §1

[22] = test system: Salmonella typhosa T-63; experiment: MIC, standard serial dilution method; type: cell-based; conditions: Salmonella enterica, TYPHOSA, 18 h, read-out: Minimal inhibitory concentration
Method: as §1

[23] = test system: Sarcina lutea PCI 1001; experiment: MIC, standard serial dilution method; type: cell-based; conditions: Micrococcus luteus, PCI1001, nutrient agar, 37°C, 18 hours, read-out: Minimal inhibitory concentration
Method: as §1

[24] = test system: Staphylococcus aureus FDA 209 P; experiment: MIC, standard serial dilution method; type: cell-based; conditions: Staphylococcus aureus, FDA209; S. aureus FDA 209 P; nutrient agar, 37°C, 18 hours; read-out: Minimal inhibitory concentration
Method: as §1

[25] = test system: Escherichia coli K-12 JR 66/W 677; experiment: MIC, standard serial dilution method; type: cell-based; conditions: Escherichia coli, 18 h, read-out: Minimal inhibitory concentration
Method: as §1
(§2) In the above table, the mark * denotes the strain is a drug-resistant
(§3) strain of patient-origin.

[26] = test system: Escherichia coli K-12 LA 290 R 55; experiment: MIC, standard serial dilution method; type: cell-based; conditions: Escherichia coli, 18 h, read-out: Minimal inhibitory concentration
Method: as §1, §2, §3

[27] = test system: Escherichia coli K-12 ML 1629; experiment: MIC, standard serial dilution method; type: cell-based; conditions: Escherichia coli, K12ML1629; E. coli K-12 ML 1629, drug-resistant strain of patient-origin; nutrient agar, 37°C, 18 hours; read-out: Minimal inhibitory concentration
Method: as §1, §2, §3

[28] = test system: Pseudomonas aeruginosa GN 315; experiment: MIC, standard serial dilution method; type: cell-based; conditions: Pseudomonas aeruginosa, GN315; P. aeruginosa GN 315, drug-resistant strain of patient-origin; nutrient agar, 37°C, 18 hours; read-out: Minimal inhibitory concentration
Method: as §1, §2, §3

[29] = test system: kanamycin-resistant strains; conditions: in words; cited from earlier work

For `NC[C@@H]1CC[C@@H](N)[C@@H](O[C@H]2[C@H](O[C@@H]3O[C@H](CO)[C@@H](O)[C@H]3O)[C@@H](O)[C@H](N)C[C@@H]2N)O1` [3', 4'-dideoxyribostamycin], the “inactivation by some strains producing the phosphotransferase” value [1] is listed as “can be inactivated by some strains producing the phosphotransferase”.
In the case of `NC[C@@H]1O[C@H](O[C@H]2[C@@H](O)[C@H](O[C@@H]3[C@@H](O)[C@H](N)C[C@H](N)[C@H]3O[C@H]3O[C@H](CO)[C@@H](O)C[C@H]3N)O[C@@H]2CO)[C@H](N)[C@@H](O)[C@@H]1O` [LVB, lividomycin B, reference compound], the MIC [2] is reported as less than 0.2 µg/mL, the MIC [3] is reported as greater than 100 µg/mL and the MIC [4] is reported as 3.12 µg/mL (≈ 5.2 µM). It also gave an MIC [5] of 3.12 µg/mL (≈ 5.2 µM), an MIC [6] greater than 100 µg/mL and an MIC ([7]; K12ML1410, 18 h) of 6.25 µg/mL (≈ 10.4 µM). It also gave an MIC [8] greater than 100 µg/mL, an MIC [9] of 1.56 µg/mL (≈ 2.6 µM) and an MIC [10] of 3.12 µg/mL (≈ 5.2 µM). The MIC ([11]; K12, E. coli K-12, nutrient agar, 37°C, 18 hours) was 1.56 µg/mL (≈ 2.6 µM), the MIC ([12]; 18 h) was 3.12 µg/mL (≈ 5.2 µM) and the MIC [13] was 1.56 µg/mL (≈ 2.6 µM). For the same compound, the MIC ([14]; TYPE22NO.3038, 18 h) was 6.25 µg/mL (≈ 10.4 µM), the MIC [15] was 0.39 µg/mL (≈ 0.65 µM) and the MIC [16] was 1.56 µg/mL (≈ 2.6 µM). It also gave an MIC [17] of 3.12 µg/mL (≈ 5.2 µM), an MIC [18] of 100 µg/mL (≈ 167 µM) and an MIC [19] of 6.25 µg/mL (≈ 10.4 µM). It also gave an MIC [20] of 25 µg/mL (≈ 41.7 µM), an MIC [21] greater than 100 µg/mL and an MIC [22] of 0.78 µg/mL (≈ 1.3 µM). It also gave an MIC [23] of 1.56 µg/mL (≈ 2.6 µM), an MIC [24] of 1.56 µg/mL (≈ 2.6 µM) and an MIC [25] of 6.25 µg/mL (≈ 10.4 µM). It also gave an MIC [26] of 3.12 µg/mL (≈ 5.2 µM), an MIC [27] greater than 100 µg/mL and an MIC [28] of 50 µg/mL (≈ 83.4 µM). For the same compound, the “activity against kanamycin-resistant strains” value [29] was “active against the kanamycin-resistant bacteria”.
In the case of `NC[C@@H]1O[C@H](O[C@H]2[C@@H](O)[C@H](O[C@@H]3[C@@H](O)[C@H](N)C[C@H](N)[C@H]3O[C@H]3O[C@H](CNCCO)[C@@H](O)C[C@H]3N)O[C@@H]2CO)[C@H](N)[C@@H](O)[C@@H]1O` [HALVB, 6'-deoxy-6'-(2-hydroxyethylamino) lividomycin B], the MIC [2] is reported as less than 0.2 µg/mL, the MIC [3] is reported as greater than 100 µg/mL and the MIC [4] is reported as 0.78 µg/mL (≈ 1.21 µM). It also gave an MIC [5] of 1.56 µg/mL (≈ 2.43 µM), an MIC [6] greater than 100 µg/mL and an MIC ([7]; K12ML1410, E. coli K-12 ML 1410, nutrient agar, 37°C, 18 hours) of 3.12 µg/mL (≈ 4.85 µM). It also gave an MIC [8] greater than 100 µg/mL, an MIC [9] of 1.56 µg/mL (≈ 2.43 µM) and an MIC [10] of 1.56 µg/mL (≈ 2.43 µM). For the same compound, the MIC ([11]; K12, 18 h) was 1.56 µg/mL (≈ 2.43 µM), the MIC ([12]; E. coli NIHJ, nutrient agar, 37°C, 18 hours) was 3.12 µg/mL (≈ 4.85 µM) and the MIC [13] was 0.78 µg/mL (≈ 1.21 µM). It also gave an MIC ([14]; TYPE22NO.3038, K. pneumoniae type 22 No. 3038, nutrient agar, 37°C, 18 hours) of 3.12 µg/mL (≈ 4.85 µM), an MIC [15] of less than 0.2 µg/mL and an MIC [16] of 50 µg/mL (≈ 77.8 µM). It also gave an MIC [17] of 6.25 µg/mL (≈ 9.72 µM), an MIC [18] of 25 µg/mL (≈ 38.9 µM) and an MIC [19] of 6.25 µg/mL (≈ 9.72 µM). For the same compound, the MIC [20] was 0.78 µg/mL (≈ 1.21 µM), the MIC [21] was greater than 100 µg/mL and the MIC [22] was 1.56 µg/mL (≈ 2.43 µM). It also gave an MIC [23] of 25 µg/mL (≈ 38.9 µM), an MIC [24] of 0.39 µg/mL (≈ 0.607 µM) and an MIC [25] of 6.25 µg/mL (≈ 9.72 µM). It also gave an MIC [26] of 1.56 µg/mL (≈ 2.43 µM), an MIC [27] greater than 100 µg/mL and an MIC [28] of 12.5 µg/mL (≈ 19.4 µM).
